Results from ChEMBL document CHEMBL1201862, “PubChem BioAssay data set” (2004).
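All cell lines were grown in 96-well plates and treated with compound for 48 hours. The concentration for 50% growth inhibition is given as GI50.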 The source made the active and inactive calls. Rule as the data show it: active = GI50 up to about 1.1 µM and inactive = higher.

Experiments:
Test in all cases: NCI tumour cell line growth inhibition, 48 h
HL-60 = system: HL-60
MDA-N = system: MDA-N
HOP-62 = system: HOP-62
SW-620 = system: SW-620
SK-OV-3 = system: SK-OV-3
NCI-H522 = system: NCI-H522
M14 = system: M14
DU-145 = system: DU-145
MOLT-4 = system: MOLT-4
TK-10 = system: TK-10
BT-549 = system: BT-549
NCI-H226 = system: NCI-H226
786-0 = system: 786-0
Hs-578T = system: Hs-578T
SK-MEL-5 = system: SK-MEL-5
CAKI-1 = system: CAKI-1
COLO 205 = system: COLO 205
T47D = system: T47D
UO-31 = system: UO-31
PC-3 = system: PC-3
HCC 2998 = system: HCC 2998
NCI/ADR-RES = system: NCI/ADR-RES
OVCAR-8 = system: OVCAR-8
SF-539 = system: SF-539
SK-MEL-28 = system: SK-MEL-28
SN12C = system: SN12C
KM12 = system: KM12
Malme-3M = system: Malme-3M
MDA-MB-231 = system: MDA-MB-231
HCT-15 = system: HCT-15
OVCAR-3 = system: OVCAR-3
HCT-116 = system: HCT-116
RXF 393 = system: RXF 393
CCRF-CEM = system: CCRF-CEM
NCI-H23 = system: NCI-H23
UACC-257 = system: UACC-257
MDA-MB-435 = system: MDA-MB-435
MCF7 = system: MCF7
UACC-62 = system: UACC-62
SF-268 = system: SF-268
A498 = system: A498
SK-MEL-2 = system: SK-MEL-2
SNB-75 = system: SNB-75
SR = system: SR
HT-29 = system: HT-29
SNB-19 = system: SNB-19
A549 = system: A549
U-251 = system: U-251
SF-295 = system: SF-295
K562 = system: K562
NCI-H460 = system: NCI-H460
IGROV-1 = system: IGROV-1
LOX IMVI = system: LOX IMVI
OVCAR-4 = system: OVCAR-4
EKVX = system: EKVX
OVCAR-5 = system: OVCAR-5
RPMI-8226 = system: RPMI-8226
ACHN = system: ACHN

Measured: GI50

CC#CC(=O)SCCNC(=O)CC
> 10 µM: HCT-15
inactive: HL-60 > 5.57 µM | MDA-N 6.07 µM | HOP-62 > 10 µM | SW-620 3.01 µM | SK-OV-3 > 10 µM | NCI-H522 1.62 µM | M14 > 8.05 µM | DU-145 > 10 µM | MOLT-4 1.48 µM | TK-10 > 10 µM | BT-549 3.81 µM | NCI-H226 > 10 µM | 786-0 > 6.7 µM | Hs-578T > 10 µM | SK-MEL-5 8.39 µM | CAKI-1 > 10 µM | COLO 205 3.27 µM | T47D > 6.5 µM | UO-31 > 10 µM | PC-3 > 10 µM | HCC 2998 > 10 µM | NCI/ADR-RES > 10 µM | OVCAR-8 > 10 µM | SF-539 9.02 µM | SK-MEL-28 > 8.71 µM | SN12C > 10 µM | KM12 > 10 µM | Malme-3M > 10 µM | MDA-MB-231 > 10 µM | OVCAR-3 > 10 µM | HCT-116 8.51 µM | RXF 393 4.53 µM | CCRF-CEM 3.05 µM | NCI-H23 > 10 µM | UACC-257 > 10 µM | MDA-MB-435 7.24 µM | MCF7 4.41 µM | UACC-62 > 9.44 µM | SF-268 > 10 µM | A498 > 10 µM | SK-MEL-2 > 10 µM | SNB-75 > 10 µM | SR > 4.79 µM | HT-29 > 10 µM | SNB-19 > 10 µM | A549 > 10 µM | U-251 > 10 µM | SF-295 > 10 µM | K562 > 5.38 µM | NCI-H460 > 10 µM | IGROV-1 > 10 µM | LOX IMVI 3.31 µM | OVCAR-4 4.48 µM | EKVX > 10 µM | OVCAR-5 > 10 µM | RPMI-8226 > 5.15 µM | ACHN > 10 µM
